Assay results: US7754887B2, “Process for production of sulfoxide derivatives or salts thereof in the amorphous state” (EISAI R&D Management Co., Ltd., priority 2003, dated 2010)

Key:
[1] = scan speed 2° C./min, 20 to 120° C.; FIG. 6
[2] = Measurement of particle size distribution by laser diffractometry (Microtrac X100); type: physicochemical; settings: Sodium Salt; for particle size distribution: Microtrac X100, FIG. 4 and FIG. 5; for 90% cumulative diameter: calculated by measurement of the particle size distribution
Method: The measurement of particle size distribution by laser diffractometry can be conducted, for example, by using “Microtrac X100” (made by Leeds And Northrup). In the case where the particle size distribution of the amorphous substance of sulfoxide derivative (I) or the salt thereof, which is prepared by conducting the above-mentioned heat-drying, is measured by the laser diffractometry, the amorphous substance of sulfoxide derivative (I) or the salt thereof has 50 μm or less, preferably 30 μm or less of average particle diameter, and 80 μm or less, preferably 50 μm or less of 90% cumulative diameter.

[3] = Measurement of specific surface (nitrogen-absorption isotherm, BET method); type: physicochemical; settings: Sodium Salt; for Specific surface: BET method, nitrogen absorption at 77 K after vacuum degassing at 50° C.; for Specific surface, relative comparison: relative to the freeze-dried product
Method: Measurement of Specific Surface:
As for each of amorphous substances of 2-[[4-(3-methoxypropoxy)-3-methylpyridine-2-yl]methylsulfinyl]-1H-benzimidazole sodium salt obtained by freeze-drying (Reference example 2), heat-drying (Example 3), respectively, the nitrogen-absorption isotherms were measured at liquid nitrogen temperature (77 K) by a high accuracy full automatic gas absorption equipment “BELSORP 36” (prepared by Japan Bell) after vacuum degassing at 50° C. These isotherms were analyzed by BET method to obtain the specific surface.

Question: Which “temperature at which the acetone starts to be effectively decreased” value [1] does the source give for `CC(C)=O.COCCCOc1ccnc(C[S+]([O-])c2nc3ccccc3[n-]2)c1C.[Na+]` (stereo not shown) [Acetone Complex of 2-[[4-(3-methoxypropoxy)-3-methylpyridine-2-yl]methylsulfinyl]-1H-benzimidazole Sodium Salt] here?
Answer: ≥ 76.7 °C

Question: And the “temperature at which the weight starts to be decreased” value [1]?
Answer: ≥ 65.7 °C

Question: For `COCCCOc1ccnc(C[S+]([O-])c2nc3ccccc3[nH]2)c1C.[Na]` (stereo not shown) [The freeze-dried product, 2-[[4-(3-methoxypropoxy)-3-methylpyridine-2-yl]methylsulfinyl]-1H-benzimidazole Sodium Salt], which particle size distribution [2] is on record?
Answer: broad

Question: What about the 90% cumulative diameter [2] of the same compound?
Answer: 192.3 μm

Question: What about the Specific surface [3] of the same compound?
Answer: 2.3 m^2/g

Question: What about the “Specific surface, relative comparison” value [3] of the same compound?
Answer: 1.00

Question: What does the source list for `COCCCOc1ccnc(C[S+]([O-])c2nc3ccccc3[nH]2)c1C.[Na]` (stereo not shown) [The heat-dried product, 2-[[4-(3-methoxypropoxy)-3-methylpyridine-2-yl]methylsulfinyl]-1H-benzimidazole Sodium Salt]?
Answer: particle size distribution [2]: sharp; 90% cumulative diameter [2]: 18.0 μm; Specific surface [3]: 1.6 m^2/g; Specific surface, relative comparison [3]: 0.70
